Values quoted from earlier work, collected in patent US11919851B2, “Method for producing polyol-based esters of optionally acylated hydroxycarboxylic acids” (IOI Oleo GmbH, priority 2019, dated 2024).

Details: free acid and its salts; prior art statement

## CC(O)CC(=O)O (stereo not shown) [3-hydroxybutyric acid]
  adverse effects on oral administration: can cause severe vomiting and nausea
